# Measurements: patent US20160120979A1, “METHOD OF APPLYING A COMPOSITION AND PHARMACEUTICAL COMPOSITION WITH A REGIMEN OF ADMINISTERING IT” (priority 2013, published 2016)
# Key:
# [1] = test system: Acinetobacter; test: Experiment 12: replication on antibiotic agar after pulsed 400 nm irradiation; type: cell-based; conditions: 24 hours incubation; for C: Acinetobacter (no irradiation), replication: antibiotic 10 mg/l in MH agar; for D Acinetobacter (irradiation), replication: antibiotic 10 mg/l, 400 nm LED pulses 0.02 ms, 1 kHz, 10 minutes
# Procedure: (§1) 15′000′000 multi-resistant bacteriae (0.050 ml of a McFarland of 1) were put on 40 mm diameter petri dishes. The petri dishes comprised MH agar with or without antibiotic.
# (§2) […]. The LED power during 0.02 ms was measured to be 0.63 W on a Thorlabs power sensor with a surface area of 2.2×2.2 mm representing a power of 13 mW/cm^2.
# [2] = test system: Pseudomonas aeruginosa; test: as above; type: cell-based; conditions: 24 hours incubation; for A: Pseudomonas aeruginosa (no irradiation), replication: antibiotic 10 mg/l in MH agar; for B: Pseudomonas aeruginosa (irradiation), replication: antibiotic 10 mg/l, 400 nm LED pulses 0.02 ms, 1 kHz, 10 minutes
# Procedure: as §1, §2
# [3] = test system: Staphylococcus aureus MU500; test: as above; type: cell-based; conditions: 24 hours incubation; for E: Staphylococcus aureus MU500 (no irradiation), replication: antibiotic 10 mg/l in MH agar; for F: Staphylococcus aureus MU500 (irradiation), replication: antibiotic 10 mg/l, 400 nm LED pulses 0.02 ms, 1 kHz, 10 minutes
# Procedure: as §1
# The LED power during 0.02 ms was measured to be 0.63 W on a Thorlabs power sensor with a surface area of 2.2×2.2 mm representing a power of 13 mW/cm^2.
# [4] = test system: multi-drug resistant MU 50 bacterial cells; test: Experiment 1: killing of MU50 by antibiotic with/without riboflavin and UVA 365 nm (CFU); type: cell-based, Staphylococcus aureus
# Procedure: The first experiment compares the effect of two antibiotics incubated with multi-drug resistant MU 50 bacterial cells accompanied by exposure to UVA light at 365 nm. […] Furthermore, the antibiotics were administered in the presence and absence of riboflavin, to test the free radical effect of riboflavin.
# After addition of the antibiotic and optionally riboflavin to the bacterial samples they were incubated for 1 or for 30 minutes in Experiment 1A and for 30 minutes in Experiment 1B prior to the UV-A exposure at 365 nm with 9 mW/cm^2 for 10 minutes.
# In Experiment 1B the added antibiotic was tobramycin at a concentration of 135 μg/ml.
# [5] = ofloxacin 240 μg/ml, incubation 1 min, no riboflavin, no UVA
# [6] = ofloxacin 240 μg/ml, incubation 1 min, no riboflavin, with UVA 365 nm 9 mW/cm^2 10 min
# [7] = ofloxacin 240 μg/ml, incubation 1 min, with riboflavin, no UVA
# [8] = ofloxacin 240 μg/ml, incubation 1 min, with riboflavin, with UVA 365 nm 9 mW/cm^2 10 min
# [9] = ofloxacin 240 μg/ml, incubation 30 min, no riboflavin, no UVA
# [10] = ofloxacin 240 μg/ml, incubation 30 min, no riboflavin, with UVA 365 nm 9 mW/cm^2 10 min
# [11] = ofloxacin 240 μg/ml, incubation 30 min, with riboflavin, no UVA
# [12] = ofloxacin 240 μg/ml, incubation 30 min, with riboflavin, with UVA 365 nm 9 mW/cm^2 10 min
# [13] = tobramycin 135 μg/ml, incubation 30 min, no riboflavin, with UVA 365 nm 9 mW/cm^2 10 min
# [14] = tobramycin 135 μg/ml, incubation 30 min, with riboflavin, with UVA 365 nm 9 mW/cm^2 10 min
smiles,measurement,setting,value
COc1c(N2CCNC(C)C2)c(F)cc2c(=O)c(C(=O)O)cn(C3CC3)c12 (stereo not shown) [Gatifloxacin],"C: Acinetobacter (no irradiation), replication",[1],R (Bacteria can replicate after the treatment)
same,"D Acinetobacter (irradiation), replication",[1],NR (No replication)
same,"A: Pseudomonas aeruginosa (no irradiation), replication",[2],R (Bacteria can replicate after the treatment)
same,"B: Pseudomonas aeruginosa (irradiation), replication",[2],NR (No replication)
same,"E: Staphylococcus aureus MU500 (no irradiation), replication",[3],R (Bacteria can replicate after the treatment)
same,"F: Staphylococcus aureus MU500 (irradiation), replication",[3],PR (Bacteria can replicate partially)
C[C@H]1COc2c(N3CCN(C)CC3)c(F)cc3c(=O)c(C(=O)O)cn1c23 [Levofloxacin],"C: Acinetobacter (no irradiation), replication",[1],R (Bacteria can replicate after the treatment)
same,"D Acinetobacter (irradiation), replication",[1],NR (No replication)
same,"A: Pseudomonas aeruginosa (no irradiation), replication",[2],R (Bacteria can replicate after the treatment)
same,"B: Pseudomonas aeruginosa (irradiation), replication",[2],NR (No replication)
same,"E: Staphylococcus aureus MU500 (no irradiation), replication",[3],R (Bacteria can replicate after the treatment)
same,"F: Staphylococcus aureus MU500 (irradiation), replication",[3],PR (Bacteria can replicate partially)
CN(C)[C@@H]1C(O)=C(C(=O)NCNCCCC[C@H](N)C(=O)O)C(=O)[C@@]2(O)C(O)=C3C(=O)c4c(O)cccc4[C@@](C)(O)[C@H]3C[C@@H]12 [Lymecycline],"C: Acinetobacter (no irradiation), replication",[1],R (Bacteria can replicate after the treatment)
same,"D Acinetobacter (irradiation), replication",[1],NR (No replication)
same,"A: Pseudomonas aeruginosa (no irradiation), replication",[2],R (Bacteria can replicate after the treatment)
same,"B: Pseudomonas aeruginosa (irradiation), replication",[2],NR (No replication)
same,"E: Staphylococcus aureus MU500 (no irradiation), replication",[3],R (Bacteria can replicate after the treatment)
same,"F: Staphylococcus aureus MU500 (irradiation), replication",[3],NR (No replication)
CN(C)c1ccc(O)c2c1C[C@H]1C[C@H]3[C@H](N(C)C)C(O)=C(C(N)=O)C(=O)[C@@]3(O)C(O)=C1C2=O [Minocycline],"C: Acinetobacter (no irradiation), replication",[1],R (Bacteria can replicate after the treatment)
same,"D Acinetobacter (irradiation), replication",[1],NR (No replication)
same,"A: Pseudomonas aeruginosa (no irradiation), replication",[2],R (Bacteria can replicate after the treatment)
same,"B: Pseudomonas aeruginosa (irradiation), replication",[2],NR (No replication)
same,"E: Staphylococcus aureus MU500 (no irradiation), replication",[3],R (Bacteria can replicate after the treatment)
same,"F: Staphylococcus aureus MU500 (irradiation), replication",[3],NR (No replication)
CC1COc2c(N3CCN(C)CC3)c(F)cc3c(=O)c(C(=O)O)cn1c23 (stereo not shown) [Ofloxacin],CFU first run,[4]; [5],505 CFU
same,CFU second run,[4]; [5],351 CFU
same,Killed first run,[4]; [5],12%
same,Killed second run,[4]; [5],14%
same,CFU first run,[4]; [6],9 CFU
same,CFU second run,[4]; [6],9 CFU
same,Killed first run,[4]; [6],98%
same,Killed second run,[4]; [6],98%
same,CFU first run,[4]; [7],574 CFU
same,CFU second run,[4]; [7],391 CFU
same,Killed first run,[4]; [7],0%
same,Killed second run,[4]; [7],4%
same,CFU first run,[4]; [8],144 CFU
same,CFU second run,[4]; [8],98 CFU
same,Killed first run,[4]; [8],75%
same,Killed second run,[4]; [8],76%
same,CFU first run,[4]; [9],490 CFU
same,CFU second run,[4]; [9],350 CFU
same,Killed first run,[4]; [9],15%
same,Killed second run,[4]; [9],14%
same,CFU first run,[4]; [10],7 CFU
same,CFU second run,[4]; [10],15 CFU
same,Killed first run,[4]; [10],99%
same,Killed second run,[4]; [10],96%
same,CFU first run,[4]; [11],570 CFU
same,CFU second run,[4]; [11],363 CFU
same,Killed first run,[4]; [11],1%
same,Killed second run,[4]; [11],11%
same,CFU first run,[4]; [12],171 CFU
same,CFU second run,[4]; [12],193 CFU
same,Killed first run,[4]; [12],70%
same,Killed second run,[4]; [12],53%
same,"C: Acinetobacter (no irradiation), replication",[1],R (Bacteria can replicate after the treatment)
same,"D Acinetobacter (irradiation), replication",[1],NR (No replication)
same,"A: Pseudomonas aeruginosa (no irradiation), replication",[2],R (Bacteria can replicate after the treatment)
same,"B: Pseudomonas aeruginosa (irradiation), replication",[2],NR (No replication)
same,"E: Staphylococcus aureus MU500 (no irradiation), replication",[3],R (Bacteria can replicate after the treatment)
same,"F: Staphylococcus aureus MU500 (irradiation), replication",[3],PR (Bacteria can replicate partially)
CN(C)[C@@H]1C(O)=C(C(N)=O)C(=O)[C@@]2(O)C(O)=C3C(=O)c4c(O)cccc4[C@@](C)(O)[C@H]3[C@H](O)[C@@H]12 [Oxytetracycline],"C: Acinetobacter (no irradiation), replication",[1],R (Bacteria can replicate after the treatment)
same,"D Acinetobacter (irradiation), replication",[1],NR (No replication)
same,"A: Pseudomonas aeruginosa (no irradiation), replication",[2],R (Bacteria can replicate after the treatment)
same,"B: Pseudomonas aeruginosa (irradiation), replication",[2],NR (No replication)
same,"E: Staphylococcus aureus MU500 (no irradiation), replication",[3],R (Bacteria can replicate after the treatment)
same,"F: Staphylococcus aureus MU500 (irradiation), replication",[3],NR (No replication)
CN(C)c1cc(NC(=O)CNC(C)(C)C)c(O)c2c1C[C@H]1C[C@H]3[C@H](N(C)C)C(O)=C(C(N)=O)C(=O)[C@@]3(O)C(O)=C1C2=O [Tigecycline],"C: Acinetobacter (no irradiation), replication",[1],R (Bacteria can replicate after the treatment)
same,"D Acinetobacter (irradiation), replication",[1],NR (No replication)
same,"A: Pseudomonas aeruginosa (no irradiation), replication",[2],R (Bacteria can replicate after the treatment)
same,"B: Pseudomonas aeruginosa (irradiation), replication",[2],NR (No replication)
same,"E: Staphylococcus aureus MU500 (no irradiation), replication",[3],R (Bacteria can replicate after the treatment)
same,"F: Staphylococcus aureus MU500 (irradiation), replication",[3],NR (No replication)
NC[C@H]1O[C@H](O[C@H]2[C@H](O)[C@@H](O[C@H]3O[C@H](CO)[C@@H](O)[C@H](N)[C@H]3O)[C@H](N)C[C@@H]2N)[C@H](N)C[C@@H]1O [Tobramycin],CFU first run,[4]; [13],416 CFU
same,CFU second run,[4]; [13],481 CFU
same,Killed first run,[4]; [13],36%
same,Killed second run,[4]; [13],25%
same,CFU first run,[4]; [14],144 CFU
same,CFU second run,[4]; [14],159 CFU
same,Killed first run,[4]; [14],78%
same,Killed second run,[4]; [14],75%
same,"C: Acinetobacter (no irradiation), replication",[1],R (Bacteria can replicate after the treatment)
same,"D Acinetobacter (irradiation), replication",[1],R (Bacteria can replicate after the treatment)
same,"A: Pseudomonas aeruginosa (no irradiation), replication",[2],R (Bacteria can replicate after the treatment)
same,"B: Pseudomonas aeruginosa (irradiation), replication",[2],NR (No replication)
same,"E: Staphylococcus aureus MU500 (no irradiation), replication",[3],R (Bacteria can replicate after the treatment)
same,"F: Staphylococcus aureus MU500 (irradiation), replication",[3],R (Bacteria can replicate after the treatment)
